Measured values from ChEMBL document CHEMBL1140606, “Green tea catechins inhibit bacterial DNA gyrase by interaction with its ATP binding site” (J Med Chem, 2007).
Values after ≈ are worked out from the molar mass of the structure shown. Active and inactive are the calls of the source. No cut-off for these calls is given here.

Tests used:
Escherichia coli [1] = experiment: Inhibition of Escherichia coli DNA gyrase B ATPase activity
Escherichia coli [2] = experiment: Inhibition of Escherichia coli DNA gyrase B supercoiling activity upto 100 uM
Escherichia coli [3] = experiment: (§1) Inhibition of Escherichia coli DNA gyrase B supercoiling activity
[4] = Displacement of fluorescent quercetin from Escherichia coli BL21 (DE3) recombinant DNA gyrase B G24
Escherichia coli [5] = experiment: Displacement of picogreen from Escherichia coli DNA gyrase B
Escherichia coli [6] = experiment: Antibacterial activity against Escherichia coli; type: functional
Escherichia coli [7] = experiment: Displacement of ethidium bromide from Escherichia coli DNA gyrase B
[8] = as §1

SMILES | Activity (Escherichia coli [1]) | Activity (Escherichia coli [2]) | Activity (Escherichia coli [3]) | Kd [4] | Activity (Escherichia coli [5]) | MIC (Escherichia coli [6]) | Activity (Escherichia coli [7]) | IC50 [8]
Oc1cc(O)c2c(c1)O[C@H](c1ccc(O)c(O)c1)[C@H](O)C2 [(-)-EPICATECHIN] | inactive | inactive | inactive | 54 µM | inactive | > 1000 µM | inactive | –
O=C(O[C@@H]1Cc2c(O)cc(O)cc2O[C@@H]1c1ccc(O)c(O)c1)c1cc(O)c(O)c(O)c1 [EPICATECHIN GALLATE] | Active | – | – | 36 µM | inactive | 25 µM (≈ 11.1 µg/mL) | inactive | 50 µM
O=c1c(O)c(-c2ccc(O)c(O)c2)oc2cc(O)cc(O)c12 [QUERCETIN] | – | – | – | 15 µM | – | – | – | –
O=C(O[C@@H]1Cc2c(O)cc(O)cc2O[C@@H]1c1cc(O)c(O)c(O)c1)c1cc(O)c(O)c(O)c1 [EPIGALOCATECHIN GALLATE] | Active | – | – | 23 µM | inactive | 10 µM (≈ 4.58 µg/mL) | inactive | 50 µM
Oc1cc(O)c2c(c1)O[C@H](c1cc(O)c(O)c(O)c1)[C@H](O)C2 [EPIGALLOCATECHIN] | Active | inactive | – | 34 µM | inactive | 100 µM (≈ 30.6 µg/mL) | inactive | –
